Measurements from US20110251063A1, “HETEROCYCLIC DIKETONE DERIVATIVES WITH HERBICIDAL ACTION” (priority 2008, published 2011).

Tests used:
[1] = tested on: AMARE; experiment: greenhouse post-emergence herbicidal activity against AMARE; type: in vivo, Amaranthus retroflexus; conditions: scale 0 to 100
Description: (§1) The seeds of the test plants were sown separately for each species. For the post-emergence treatment, the test plants were first grown to a height of 3 to 15 cm, depending on the plant habit, and then treated with the active compounds which had been suspended or emulsified in water. For this purpose, the test plants were either sown directly and grown in the same containers, or they were first grown separately as seedlings and transplanted into the test containers a few days prior to treatment. Depending on the species, the plants were kept at 10-25° C. or 20-35° C. The test period extended over 2 to 4 weeks. During this time, the plants were tended, and their response to the individual treatments was evaluated. Evaluation was carried out using a scale from 0 to 100. 100 means no emergence of the plants, or complete destruction of at least the aerial moieties, and 0 means no damage, or normal course of growth. A good herbicidal activity is given at values of at least 70 and a very good herbicidal activity is given at values of at least 85. The plants used in the greenhouse experiments belonged to the following species: [table]

[2] = tested on: CHEAL; experiment: greenhouse post-emergence herbicidal activity against CHEAL; type: in vivo, Chenopodium album; conditions: scale 0 to 100
Description: as §1

[3] = tested on: ABUTH; experiment: greenhouse pre-emergence herbicidal activity against ABUTH; type: in vivo, Abutilon theophrasti; conditions: application rate 3.0 kg/ha, scale 0 to 100
Description: (§2) The seeds of the test plants were sown separately for each species. For the pre-emergence treatment, the active compounds, which had been suspended or emulsified in water, were applied directly after sowing by means of finely distributing nozzles. The containers were irrigated gently to promote germination and growth and subsequently covered with transparent plastic hoods until the plants had rooted. This cover caused uniform germination of the test plants, unless this has been impaired by the active compounds. Depending on the species, the plants were kept at 10-25° C. or 20-35° C. The test period extended over 2 to 4 weeks. During this time, the plants were tended, and their response to the individual treatments was evaluated. Evaluation was carried out using a scale from 0 to 100. 100 means no emergence of the plants, or complete destruction of at least the aerial moieties, and 0 means no damage, or normal course of growth. A good herbicidal activity is given at values of at least 70 and a very good herbicidal activity is given at values of at least 85. The plants used in the greenhouse experiments belonged to the following species: [table]

[4] = tested on: SETIT; experiment: greenhouse pre-emergence herbicidal activity against SETIT; type: in vivo, Setaria italica; conditions: application rate 3.0 kg/ha, scale 0 to 100
Description: as §2

[5] = tested on: ALOMY; experiment: greenhouse post-emergence herbicidal activity against ALOMY; type: in vivo, Alopecurus myosuroides; conditions: application rate 3.0 kg/ha, scale 0 to 100
Description: as §1

[6] = tested on: GALAP; experiment: greenhouse post-emergence herbicidal activity against GALAP; type: in vivo, Galium aparine; conditions: application rate 0.25 kg/ha, scale 0 to 100
Description: as §1

[7] = tested on: SETFA; experiment: greenhouse post-emergence herbicidal activity against SETFA; type: in vivo, Setaria faberi; conditions: application rate 3.0 kg/ha, scale 0 to 100
Description: as §1

COC(=O)C(=C(OC(C)=O)c1ncccc1OC(C)=O)c1ccccc1C(F)(F)F [I-2, methyl 3-acetoxy-3-(3-acetoxypyridin-2-yl)-2-(2-trifluoromethylphenyl)acrylate]
herbicidal activity against AMARE ([1]; application rate 0.5 kg/ha): Very good
herbicidal activity against CHEAL ([2]; application rate 0.5 kg/ha): Very good

COC(=O)C(C(=O)c1ncccc1O)c1ccccc1C(F)(F)F (stereo not drawn) [I-1, methyl 3-(3-hydroxypyridin-2-yl)-3-oxo-2-(2-trifluoromethylphenyl)propionate]
herbicidal activity against ABUTH [3]: good (A good herbicidal activity is given at values of at least 70)
herbicidal activity against SETIT [4]: very good (a very good herbicidal activity is given at values of at least 85)
herbicidal activity against ALOMY [5]: good (A good herbicidal activity is given at values of at least 70)
herbicidal activity against AMARE ([1]; application rate 0.25 kg/ha): Very good
herbicidal activity against CHEAL ([2]; application rate 0.25 kg/ha): Very good
herbicidal activity against GALAP [6]: very good (a very good herbicidal activity is given at values of at least 85)
herbicidal activity against SETFA [7]: very good (a very good herbicidal activity is given at values of at least 85)
